Where two headings read alike, the source gives them in different places.
How the values were obtained:
human CCR-2 [1] = target: T1, human CCR-2 (Homo sapiens, UniProt P41597); assay: CCR-2 chemotaxis, MCP-1-induced, THP-1 cells; assay type: cell-based
T1 sequence (P41597 1-360 isoform P41597-2): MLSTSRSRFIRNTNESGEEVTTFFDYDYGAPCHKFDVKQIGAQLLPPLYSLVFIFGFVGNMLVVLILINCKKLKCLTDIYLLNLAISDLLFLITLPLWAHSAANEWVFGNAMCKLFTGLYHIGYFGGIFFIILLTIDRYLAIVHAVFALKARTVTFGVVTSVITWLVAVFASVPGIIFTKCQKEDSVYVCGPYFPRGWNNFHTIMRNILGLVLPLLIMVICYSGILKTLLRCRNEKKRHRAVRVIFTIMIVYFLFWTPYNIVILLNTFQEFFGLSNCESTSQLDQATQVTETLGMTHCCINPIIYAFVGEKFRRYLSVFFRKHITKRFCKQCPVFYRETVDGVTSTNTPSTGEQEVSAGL
Procedure: The human CCR-2 chemotaxis assay was conducted with the human monocytic cell line, THP-1. THP-1 cells were first labeled with the fluorescent dye Calcein-AM in phenol red-free, BSA-free RPMI-1640 (pH 7.4) at 37° C. for 30 minutes with gentle mixing every 15 minutes. The labeled cells were then washed and re-suspended at 1×10^5/ml in chemotaxis buffer (phenol red-free RPMI-1640, 0.1% BSA, pH 7.4). The test compound was diluted in chemotaxis buffer such that the final assay concentration ranged from 0.01 nM to 1 μM. The ligand MCP-1 (PeproTech Inc.) was diluted to 20 nM in chemotaxis buffer. To perform the assay, an equal volume of test compound dilutions was mixed with an equal volume of labeled THP-1 cells (Mixture 1), and an equal volume of test compound dilutions was mixed with an equal volume of diluted MCP-1 ligand (Mixture 2). Both mixtures were incubated independently at 37° C. for 10 minutes followed by gentle mixing. MCP-1-induced chemotaxis was then measured in a chemotaxis plate (Becton Dickinson) by placing 50 μl of Mixture 1 in the top chamber and 225 μl of Mixture 2 in the bottom chamber. The plate was covered with a lid and incubated at 37° C. for 30 minutes. 30 minutes later, the plate was read on a CYTOFLUOR®. All conditions were tested in duplicate. […]

[2] = target: T2, human cardiac sodium channel, SCN5A (Homo sapiens, UniProt Q14524); assay: Sodium channel patch clamp; assay type: cell-based; settings: read-out: Na+ channel patch clamp (% Inhib.)
T2 construct: expressed in transfected cells; host or cells: HEK-293
T2 sequence (Q14524 whole entry): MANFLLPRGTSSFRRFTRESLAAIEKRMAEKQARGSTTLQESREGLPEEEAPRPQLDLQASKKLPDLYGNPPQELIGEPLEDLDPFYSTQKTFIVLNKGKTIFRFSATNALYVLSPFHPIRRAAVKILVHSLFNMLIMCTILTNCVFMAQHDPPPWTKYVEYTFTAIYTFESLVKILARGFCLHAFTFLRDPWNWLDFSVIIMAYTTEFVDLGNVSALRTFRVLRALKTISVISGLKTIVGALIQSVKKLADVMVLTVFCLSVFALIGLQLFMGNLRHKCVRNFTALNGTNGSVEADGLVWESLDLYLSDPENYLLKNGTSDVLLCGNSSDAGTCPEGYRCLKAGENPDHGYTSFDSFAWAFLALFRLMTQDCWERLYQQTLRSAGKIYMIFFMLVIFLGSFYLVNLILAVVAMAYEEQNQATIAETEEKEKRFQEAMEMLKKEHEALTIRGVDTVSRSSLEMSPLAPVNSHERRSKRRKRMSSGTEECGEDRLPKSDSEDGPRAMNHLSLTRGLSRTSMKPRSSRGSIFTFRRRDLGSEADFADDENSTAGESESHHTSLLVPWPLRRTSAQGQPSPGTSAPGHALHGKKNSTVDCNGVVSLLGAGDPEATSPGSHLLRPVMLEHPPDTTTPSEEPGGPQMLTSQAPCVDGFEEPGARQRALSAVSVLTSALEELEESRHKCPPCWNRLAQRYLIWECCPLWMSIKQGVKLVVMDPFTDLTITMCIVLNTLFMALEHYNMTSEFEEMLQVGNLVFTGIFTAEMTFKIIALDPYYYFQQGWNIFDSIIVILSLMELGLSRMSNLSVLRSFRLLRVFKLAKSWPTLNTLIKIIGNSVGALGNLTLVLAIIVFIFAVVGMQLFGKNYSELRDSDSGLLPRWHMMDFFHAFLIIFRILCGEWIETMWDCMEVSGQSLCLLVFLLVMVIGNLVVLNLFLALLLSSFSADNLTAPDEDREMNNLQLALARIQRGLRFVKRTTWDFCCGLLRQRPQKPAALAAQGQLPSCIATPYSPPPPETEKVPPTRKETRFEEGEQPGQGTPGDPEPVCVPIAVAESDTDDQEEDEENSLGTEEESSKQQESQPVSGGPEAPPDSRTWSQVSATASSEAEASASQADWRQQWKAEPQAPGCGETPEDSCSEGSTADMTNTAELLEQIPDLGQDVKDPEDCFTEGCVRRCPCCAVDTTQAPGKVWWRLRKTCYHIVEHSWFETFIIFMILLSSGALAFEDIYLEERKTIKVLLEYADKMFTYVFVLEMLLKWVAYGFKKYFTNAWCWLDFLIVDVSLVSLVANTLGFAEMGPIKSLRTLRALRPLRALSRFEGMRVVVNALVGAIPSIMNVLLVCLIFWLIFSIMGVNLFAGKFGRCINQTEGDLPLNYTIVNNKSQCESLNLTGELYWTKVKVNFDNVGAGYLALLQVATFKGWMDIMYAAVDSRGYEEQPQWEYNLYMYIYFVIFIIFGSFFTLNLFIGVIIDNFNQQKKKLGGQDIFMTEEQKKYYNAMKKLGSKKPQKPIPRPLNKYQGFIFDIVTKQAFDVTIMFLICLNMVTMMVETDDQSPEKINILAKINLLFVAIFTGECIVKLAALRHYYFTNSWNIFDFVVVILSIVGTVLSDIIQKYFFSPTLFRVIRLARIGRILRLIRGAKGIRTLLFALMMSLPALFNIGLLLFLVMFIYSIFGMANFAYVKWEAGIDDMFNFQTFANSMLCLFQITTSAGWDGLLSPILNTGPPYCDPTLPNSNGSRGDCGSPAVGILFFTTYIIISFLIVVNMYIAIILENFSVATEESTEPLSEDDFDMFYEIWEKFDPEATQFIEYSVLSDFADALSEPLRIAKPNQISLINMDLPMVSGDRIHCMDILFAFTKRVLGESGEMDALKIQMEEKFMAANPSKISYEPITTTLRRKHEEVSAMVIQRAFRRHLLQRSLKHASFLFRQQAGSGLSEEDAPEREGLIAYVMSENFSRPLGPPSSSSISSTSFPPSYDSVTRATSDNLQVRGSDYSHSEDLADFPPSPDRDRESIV
Procedure: Whole-cell patch-clamp was used to directly measure inward sodium currents in HEK-293 cells expressing the human cardiac sodium channel, SCN5A. The compound was tested at a protein-free aqueous buffer. For determining steady state inhibition, sodium currents were elicited every 5 seconds using the following voltage protocol: cells were held at a potential of −90 mV and stepped to −20 mV for 60 ms. Effects were calculated by measuring inhibition of peak current during the test pulse to −20 mV. Rate-dependence of inhibition was assessed by stimulation at frequencies of 1 Hz and 4 Hz.

CCR-5 [3] = target: T3, CCR-5 (Homo sapiens, UniProt P51681); assay: CCR-5 GTP-γS exchange, CCR-5/HT1080 membranes; assay type: biochemical; settings: MIP-1α/LD78β ligand
T3 construct: human peripheral T cells was used as a source of CCR-5; endogenous in cells; host or cells: human peripheral T cells from donors pre-screened for high CCR-5 expression
T3 sequence (P51681 whole entry): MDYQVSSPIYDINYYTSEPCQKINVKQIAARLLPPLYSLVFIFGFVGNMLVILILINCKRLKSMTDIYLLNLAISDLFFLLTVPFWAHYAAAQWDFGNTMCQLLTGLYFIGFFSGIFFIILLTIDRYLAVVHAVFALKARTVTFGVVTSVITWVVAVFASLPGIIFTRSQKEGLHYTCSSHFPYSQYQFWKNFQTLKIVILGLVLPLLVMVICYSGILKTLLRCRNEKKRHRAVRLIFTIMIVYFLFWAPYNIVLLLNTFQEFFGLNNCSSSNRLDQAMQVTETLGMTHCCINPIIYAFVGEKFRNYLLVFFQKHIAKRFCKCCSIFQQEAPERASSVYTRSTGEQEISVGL
Text: A similar procedure to the CCR-2 GTP-γS exchange procedure set forth above was adopted except that MIP-1α/LD78β was the ligand and the cell line was CCR-5/HT1080. MIP-1α/LD78β was used as the CCR-5 ligand because it provided a bigger signal to noise ratio than MIP-1β.

CCR-5 [4] = target: T3, CCR-5; assay: CCR-5 whole blood CD11b upregulation; assay type: cell-based; settings: MIP-1β 50 nM
Procedure: Similar procedure to the CCR-2 whole blood CD11b upregulation procedure set forth above was adopted except that MIP-1β (50 nM) was used as the ligand.

[5] = Plasma levels of Example 1 and mouse MCP-1 in the 48-hour TG peritonitis model; assay type: in vivo; settings: mouse, read-out: Concentration of free Example 1 in plasma (nM) (fold IC90 CCR-2 binding)
Procedure: For the 48-hour TG peritonitis study, Example 1 was dosed twice a day with the first dose one hour prior to TG injection. Total peritoneal cell counts were obtained on isolated cells by a cell counter. Cytospins were performed to determine differential leukocyte counts. The cells were stained for 3 minutes with Wright-Giemsa Stain (Sigma-Aldrich) and then rinsed with deionized water for 5 minutes. Differential counts were calculated based on a total of 200 cells counted per sample. Blood was also collected from the retro-orbital sinus at the end of each study in EDTA for determination of drug concentration.
The caveat for this estimation is that only CCR-2 and its major ligand MCP-1 were taken into consideration. The receptor occupancy of a ligand in the presence of a competitive inhibitor is defined by the Gaddum equation: […]

[6] = Single-dose pharmacokinetics in rats; settings: male, Sprague-Dawley, rat
Procedure: Male Sprague-Dawley rats (250-300 g) were used for the pharmacokinetic studies. Rats were fasted overnight prior to PO dosing and fed 4 h post dose. Blood samples (˜0.3 mL) were collected from the jugular vein into K2EDTA-containing tubes and then centrifuged at 4° C. (1500-2000×g) to obtain plasma. […] Serial blood samples were obtained at 0.17 (for IV only), 0.25, 0.5, 0.75, 1, 2, 4, 6, 8, and 24 h post dose. Plasma samples, obtained by centrifugation at 4° C. (1500-2000×g), were stored at −20° C. until analysis by LC/MS/MS.
(§1) The pharmacokinetic parameters were obtained by non-compartmental analysis of plasma concentration vs. time data (Kinetica software, Version 4.2, InnaPhase Corporation, Philadelphia, Pa.). The peak concentration (Cmax) and time for Cmax were recorded directly from experimental observations. The area under the curve from time zero to the last sampling time (AUC(0-T)) was calculated using a combination of linear and log trapezoidal summations. The total plasma clearance (CLTp), steady-state volume of distribution (Vss), apparent elimination half-life (T½) and mean residence time (MRT) were estimated after IV administration. Estimations of T½ was made using a minimum of 3 time points with quantifiable concentrations. The absolute oral bioavailability (F) was estimated as the ratio of dose-normalized AUC values following oral and IV doses.

[7] = Single-dose pharmacokinetics in monkeys; settings: male, cynomolgus monkey, 1 mg/kg
Procedure: The pharmacokinetics of various test compounds were evaluated in male cynomolgus monkeys in a crossover-design. Monkeys were fasted overnight prior to PO dosing and fed 4 h post dose. A group of 1-3 animals (3 to 5 kg) received the compound by IV infusion (over 10 min) via a femoral vein and by oral gavage, with a 1-week washout between treatments. Serial blood samples (˜0.3 mL) were collected from a femoral artery at 0.17 (IV only), 0.25, 0.5, 0.75, 1, 2, 4, 6, 8, and 24 h post dose, and centrifuged at 4° C. (1500-2000×g) to obtain plasma. Samples were stored at −20° C. until analysis by LC/MS/MS.
as §1

human CCR-2 [8] = target: T1, human CCR-2; assay: Human CCR-2 binding assay with hPBMCs, 125I-human MCP-1 tracer; set-up: hPBMCs were isolated from human leukopak; host or cells: human peripheral blood mononuclear cells
Procedure: See also: Yoshimura et al., J. Immunol., 145:292 (1990). […] This was followed by adding 25 μl of Microscint 20 into each well. The plate was sealed and counted on the Trilux for 1 minute. […] All conditions were tested in duplicate.

human CCR-2 [9] = target: T1, human CCR-2; assay: 125I-mouse MCP-1 binding to human CCR-2-expressing cells (hPBMCs); set-up: hPBMCs were isolated from human leukopak; host or cells: human peripheral blood mononuclear cells; settings: read-out: in vitro IC50 for inhibition of 125I-mouse MCP-1 binding to human CCR-2-expressing cells (hPBMCs)

With `CC(=O)N[C@@H]1C[C@H](NC(C)(C)C)CC[C@@H]1N1CC[C@H](Nc2ncnc3cc(C(C)(C)C)nn23)C1=O` [Example 1, N-((1R,2 S,5R)-5-(tert-Butylamino)-2-((S)-3-(7-tert-butylpyrazolo[1,5-a][1,3,5]triazin-4-ylamino)-2-oxopyrrolidin-1-yl)cyclohexyl)acetamide] the IC50 (human CCR-2 [1]) was 0.8 ± 0.8 nM, the inhibition at 10000 nM ([2]; 10,000 nM) was 15 to 20% and the inhibition at 30000 nM ([2]; 30,000 nM) was 13 to 16%. For the same molecule, the IC50 (CCR-5 [3]) was 6.1 ± 1.2 nM, the IC50 (CCR-5 [4]) was 5.7 nM and the concentration at 48 h ([5]; hCCR-2 KI, oral, 10 mg/kg) was 1.9 nM. For the same molecule, the concentration at 48 h ([5]; hCCR-2 KI, oral, 50 mg/kg) was 16.6 nM, the concentration at 48 h ([5]; hCCR-2 KI, oral, 200 mg/kg) was 136 nM and the concentration at 48 h ([5]; 160 mg/kg oral BID, 48 h, hCCR-2 KI mice) was 62 nM. It also gave a clearance ([6]; in vivo, 2 mg/kg) of 49.7 mL/min/kg, a bioavailability ([6]; in vivo, 10 mg/kg) of 94% and an AUC ([6]; plasma, oral, 10 mg/kg) of 6.5 µM·h. For the same molecule, the bioavailability ([7]; in vivo) was 63%, the clearance ([7]; plasma, intravenous) was 16.4 mL/min/kg and the AUC ([7]; plasma, oral) was 1.3 µM·h. It also gave a Ki (human CCR-2 [8]; average, read-out: average Ki for binding to hCCR-2) of 2 nM, an IC50 (human CCR-2 [8]; hPBMCs, 125I-human MCP-1) of 6.2 ± 2.7 nM and an IC50 (human CCR-2 [9]) of 5.8 ± 2.3 nM.

Source: patent US8618101B2, “N-((1R,2S,5R)-5-(tert-butylamino)-2-((S)-3-(7-tert-butylpyrazolo[1,5-a][1,3,5]triazin-4-ylamino)-2-oxopyrrolidin-1-yl)cyclohexyl)acetamide, a dual modulator of chemokine receptor activity, crystalline forms and processes” (Bristol-Myers Squibb Company, priority 2009, dated 2013)
